Measurements reported in patent US20230331803A1, “CO-AGONISTS OF THE GLP-1 AND AMYLIN RECEPTORS” (priority 2020, published 2023).
Like-named read-outs stand apart in the source and are kept apart here. Starred links: 1 amine or outer side, 2 acyl side, 3 side chain; linkers in the order of their positions; H or OH if unused. Non-standard residues stand in square brackets, D forms with d. Groups on a side chain read outwards from the residue. *: point of attachment. X1 = O=C(O)CCCCCCCCCCCCCCC(=O)N[C@@H](CCC(=O)NCCOCCOCC(=O)NCCOCCOCC(=O)NCCCC[C@H](NC(=O)COCCOCCNC(=O)COCCOCCNC(=O)CC[C@H](NC(=O)CCCCCCCCCCCCCCC(=O)O)C(=O)O)C(=O)*)C(=O)O; Undecanoyl(11-OPh(4-COOH)) = O=C(O)c1ccc(OCCCCCCCCCCC(=O)*)cc1; C20 diacid = O=C(O)CCCCCCCCCCCCCCCCCCC(=O)*; C18 diacid = O=C(O)CCCCCCCCCCCCCCCCC(=O)*; C16 diacid = O=C(O)CCCCCCCCCCCCCCC(=O)*; γGlu = O=C(O)[C@H](CCC(=O)[*:2])N[*:1]; C14 diacid = O=C(O)CCCCCCCCCCCCC(=O)*; Desaminohistidyl = O=C(CCc1c[nH]cn1)*; εLys = N[C@@H](CCCCN[*:1])C(=O)[*:2]; Trx = NC[C@H]1CC[C@H](C(=O)O)CC1; AEEA = NCCOCCOCC(=O)O; Aib = CC(C)(N)C(=O)O

Key:
[1] = molecular target: T1, human amylin receptor (hAmyR3) (Homo sapiens, UniProt O60896+P30988); test: Human amylin receptor in vitro potency assay (CRE-luciferase reporter, BHK cells); type: cell-based; details: for Ability to agonise the amylin receptor, in words: Tables 4a-4c;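 for all read-outs here: BHK cells expressing human calcitonin receptor plus RAMP3 (amylin-3 receptor) with a CRE-luciferase reporter, agonist activity read as luminescence from cAMP-driven transcription, 7-point serial dilutions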
T1 construct: host or cells: BHK cells (Hollex-1 line: human calcitonin receptor (a) + CRE-Luc), further transfected with human RAMP3
T1 sequence (P30988 25-474): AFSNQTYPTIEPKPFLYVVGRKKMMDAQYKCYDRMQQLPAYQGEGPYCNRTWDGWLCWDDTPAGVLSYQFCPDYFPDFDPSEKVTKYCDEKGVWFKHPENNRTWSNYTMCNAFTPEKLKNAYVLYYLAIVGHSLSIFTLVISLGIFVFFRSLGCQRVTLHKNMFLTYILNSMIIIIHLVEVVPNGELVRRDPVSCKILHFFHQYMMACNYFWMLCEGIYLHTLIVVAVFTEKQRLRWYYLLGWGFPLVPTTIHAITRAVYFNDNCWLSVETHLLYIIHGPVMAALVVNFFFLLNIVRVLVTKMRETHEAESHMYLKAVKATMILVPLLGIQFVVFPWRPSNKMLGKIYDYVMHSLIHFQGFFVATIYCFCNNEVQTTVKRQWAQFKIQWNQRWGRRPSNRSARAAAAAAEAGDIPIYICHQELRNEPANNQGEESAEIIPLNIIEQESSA
T1 sequence (O60896 24-148): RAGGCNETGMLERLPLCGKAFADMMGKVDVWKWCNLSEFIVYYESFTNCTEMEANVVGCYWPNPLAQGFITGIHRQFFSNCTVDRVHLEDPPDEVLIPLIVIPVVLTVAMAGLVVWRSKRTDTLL

human GLP-1 receptor = molecular target: T2, human GLP-1 receptor (Homo sapiens, UniProt P43220); test: Human GLP-1 receptor in vitro potency assay (CRE-luciferase reporter, BHK cells); type: cell-based
T2 construct: expressed in transfected cells; host or cells: BHK (Baby Hamster Kidney) cells, clone BHK 467-12A KZ-10, stably transfected, with CRE-luciferase reporter
T2 sequence (P43220 24-463): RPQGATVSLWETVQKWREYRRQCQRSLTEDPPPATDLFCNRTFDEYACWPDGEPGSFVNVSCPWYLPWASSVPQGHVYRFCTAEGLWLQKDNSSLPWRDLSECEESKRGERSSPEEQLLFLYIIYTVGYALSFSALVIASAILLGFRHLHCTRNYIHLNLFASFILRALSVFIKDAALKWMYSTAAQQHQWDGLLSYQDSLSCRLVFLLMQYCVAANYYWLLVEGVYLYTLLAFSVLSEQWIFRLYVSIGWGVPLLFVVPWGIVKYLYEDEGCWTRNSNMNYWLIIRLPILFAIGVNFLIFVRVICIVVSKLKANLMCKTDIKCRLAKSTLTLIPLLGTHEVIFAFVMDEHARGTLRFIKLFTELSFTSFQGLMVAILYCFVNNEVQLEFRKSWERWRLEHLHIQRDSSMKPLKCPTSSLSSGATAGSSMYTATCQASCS
Experimental: It is thus possible to measure GLP-1 receptor activity using a CRE-luciferase reporter gene introduced into Baby Hamster Kidney (BHK) cells co-expressing the GLP-1 receptor.
Cells were aliquoted and stored at -180° C. until use.
Plates were sealed and incubated at room temperature with gentle shaking for 30 minutes while protected from light. Luminescence was detected on a luminescence plate reader e.g. a Synergy 2 (BioTek).

[2] = Table 4a, BHK hAmyR3/CRE-Luc cells, 3 hours, read-out: Human AmyR3 potency [EC50 (pM)]
[3] = Table 4a, BHK cells expressing human GLP-1R, CRE-Luc, 3 hours, read-out: Human GLP-1R potency [EC50 (pM)]

| EC50 [1, 2] [pM] | EC50 (human GLP-1 receptor; [3]) [pM] | Compound | other results |
| --- | --- | --- | --- |
|  |  | CC[C@H](C)[C@H](NC(=O)[C@H](Cc1ccccc1)NC(=O)[C@H](CCC(=O)O)NC(=O)[C@H](CCCNC(=N)N)NC(=O)[C@H](C)NC(=O)[C@H](C)NC(=O)[C@H](CCC(N)=O)NC(=O)[C@H](CCC(=O)O)NC(=O)[C@H](CCC(=O)O)NC(=O)[C@H](CC(C)C)NC(=O)[C@H](Cc1ccc(O)cc1)NC(=O)[C@H](CO)NC(=O)[C@H](CO)NC(=O)[C@H](CCCCNC(=O)COCCOCCNC(=O)COCCOCCNC(=O)CC[C@H](NC(=O)CCCCCCCCCCCCCCCCC(=O)O)C(=O)O)NC(=O)[C@H](CC(=O)O)NC(=O)[C@H](CO)NC(=O)[C@@H](NC(=O)[C@H](Cc1ccccc1)NC(=O)[C@@H](NC(=O)CNC(=O)[C@H](CCC(=O)O)NC(=O)[C@H](Cc1c[nH]c2ccccc12)NC(=O)[C@@H](N)Cc1c[nH]cn1)[C@@H](C)O)[C@@H](C)O)C(=O)N[C@@H](CCC(=O)O)C(=O)N[C@@H](Cc1c[nH]c2ccccc12)C(=O)N[C@@H](CC(C)C)C(=O)N[C@H](C(=O)N[C@@H](CCCNC(=N)N)C(=O)NCC(=O)N[C@@H](CCCNC(=N)N)C(=O)NCC(=O)N[C@@H](CCC(=O)O)C(=O)N[C@@H](C)C(=O)N[C@@H](CO)C(=O)N[C@@H](CCC(=O)O)C(=O)N[C@@H](CC(C)C)C(=O)N[C@@H](CO)C(=O)N[C@H](C(=O)N[C@@H](C)C(=O)N[C@@H](C)C(=O)N[C@@H](CC(C)C)C(=O)NCC(=O)N[C@@H](CCCNC(=N)N)C(=O)N[C@@H](CC(C)C)C(=O)N[C@@H](CO)C(=O)N[C@@H](C)C(=O)N[C@@H](CCC(=O)O)C(=O)N[C@@H](CC(C)C)C(=O)N[C@@H](Cc1c[nH]cn1)C(=O)N[C@@H](CCC(=O)O)C(=O)N[C@@H](CC(C)C)C(=O)N[C@@H](C)C(=O)N[C@H](C(=O)N[C@@H](CC(C)C)C(=O)N1CCC[C@H]1C(=O)N[C@@H](CCCNC(=N)N)C(=O)N[C@H](C(=O)N[C@@H](CCC(=O)O)C(=O)N[C@H](C(=O)NCC(=O)N[C@@H](CO)C(=O)NCC(=O)N[C@@H](CO)C(=O)N1CCC[C@H]1C(N)=O)[C@@H](C)O)[C@@H](C)O)[C@@H](C)O)[C@@H](C)O)C(C)C [Compound 0273] | EC50 [1]: 18 pM; EC50 (human GLP-1 receptor): 24.9 pM |
| 19.5 | 14.3 | Desaminohistidyl-AEGTFTSDVSSYLEEQAAREFIAWLVRGRK([AEEA-AEEA-γGlu-C18 diacid])EASELSTAALGRLSAELHELATLPRTETGSGSP-NH2 [Compound 0051] |  |
| 15.4 | 88.2 | Desaminohistidyl-[Aib]EGTFTSDVSSYLEEQAAREFIAWLVRGRK([γGlu-C20 diacid])EASELSTAALGRLSAELHELATLPRTETGSGSP-NH2 [Compound 0142] |  |
|  |  | H-Aib-EGTFTSDVSSYLEEQAAREFIAWLVRGR-K([2-[2-[2-[[2-[2-[2-[[(4S)-4-Carboxy-4-(17-Carboxyheptadecanoylamino)Butanoyl]Amino]Ethoxy]Ethoxy]Acetyl]Amino]Ethoxy]Ethoxy]Acetyl])-GGGGEKCNTATCATQRLAEFLRHSSNNFGPILPPTNVGSNTP-amide [Comparator compound 0672, reference compound] | EC50 ([1]; Table 4b, reference and comparator compounds, read-out: Human AmyR3 potency [EC50 (pM)]): 606 pM; Ability to agonise the amylin receptor, in words [1]: impaired potency on the amylin receptor; Ability to agonise the GLP-1 receptor, in words (human GLP-1 receptor; Tables 4a-4c): retained their potencies on the GLP-1 receptor; EC50 (human GLP-1 receptor; read-out: Human GLP-1 R potency [EC50 (pM)], Table 4b, reference and comparator compounds): 2.2 pM |
|  |  | H-Aib-EGTFTSDVSSYLEGQAA-K([2-[2-[2-[[2-[2-[2-[[(4S)-4-Carboxy-4-(17-Carboxyheptadecanoylamino)Butanoyl]Amino]Ethoxy]Ethoxy]Acetyl]Amino]Ethoxy]Ethoxy]Acetyl])-EFIAWLVRGRGGQEPGQEPCNTATCATQRLAEFLRHSSNNFGPILPPTNVGSNTP-amide [Comparator compound 0015, reference compound] | EC50 ([1]; Table 4c, further comparator compounds, read-out: Human AmyR3 potency [EC50 (pM)]): 312 pM; Ability to agonise the amylin receptor, in words [1]: poor agonist of the amylin receptor; EC50 (human GLP-1 receptor; read-out: Human GLP-1 R potency [EC50 (pM)], Table 4c, further comparator compounds): 45 pM |
| 66.8 | 70.4 | H-HAEGTFTSDK([AEEA-AEEA-γGlu-C16 diacid])SSYLEEK([AEEA-AEEA-γGlu-C16 diacid])AAREFIEWLVRGRGEASELSTAALGRLSAELHELATLPRTETGSGSP-NH2 [Compound 0475] |  |
| 31.8 | 36.5 | H-HAEGTFTSDVSK([AEEA-AEEA-γGlu-C16 diacid])YLEEQAVREFIAK([AEEA-AEEA-γGlu-C16 diacid])LVRGRGGGEASELSTAALGRLSAELHELATLPRTETGSGSP-NH2 [Compound 0482] |  |
| 21.8 | 2.9 | H-HAEGTFTSDVSSYLEEK([AEEA-AEEA-γGlu-C20 diacid])AAREFIEWLVRGRGEASELSTAALGRLSAELHELATLPRTETGSGSP-NH2 [Compound 0474] |  |
| 17.7 | 11.2 | H-HAEGTFTSDVSSYLEEK([AEEA-AEEA-γGlu-Trx-C20 diacid])AAREFIEWLVRGRGEASELSTAALGRLSAELHELATLPRTETGSGSP-NH2 [Compound 0414] |  |
| 59.5 | 34.8 | H-HGEGTFTSDVSSYLEEQAARK([AEEA-AEEA-γGlu-C14 diacid])FIEWLVRGK([AEEA-AEEA-γGlu-C14 diacid])GEASELSTAALGRLSAELHELATLPRTETGSGSP-NH2 [Compound 0039] |  |
| 97.9 | 23.8 | H-HGEGTFTSDVSSYLEEQAARK([AEEA-AEEA-γGlu-C16 diacid])FIEWLVRGK([AEEA-AEEA-γGlu-C16 diacid])GEGGEASELSTAALGRLSAELHELATLPRTETGSGSP-NH2 [Compound 0087] |  |
| 70.9 | 32.6 | H-HGEGTFTSDVSSYLEEQAARK([AEEA-AEEA-γGlu-C18 diacid])FIEWLVRGK([AEEA-AEEA-γGlu-C18 diacid])GEGGEASELSTAALGRLSAELHELATLPRTETGSGSP-NH2 [Compound 0090] |  |
|  |  | H-HWEGTFTSDVSSYLEEQAARK([AEEA-AEEA-γGlu-Undecanoyl(11-OPh(4-COOH))])FIEWLVRGRGEGGGGGASELSTAALGRLSK([AEEA-AEEA-γGlu-Undecanoyl(11-OPh(4-COOH))])ELHELATLPRTETGSGSP-NH2 [Compound 0255] | EC50 [1]: 28.6 pM; EC50 (human GLP-1 receptor): 2.5 pM |
| 11.8 | 12 | H-HWEGTFTSDVSSYLEEQAARK([εLys-AEEA-AEEA-γGlu-Trx-C20 diacid])FIEWLVRGRGEASELSTAALGRLSAELHELATLPRTETGSGSP-NH2 [Compound 0437] |  |
| 23.9 | 17.4 | H-H[Aib]EGTFTSDK([AEEA-AEEA-γGlu-C16 diacid])SSYLEEQAAREFIAWLVRGRGGGGGEASELSTAALGRLSAELHELATLK([AEEA-AEEA-γGlu-C16 diacid])RTETGSGSP-NH2 [Compound 0261] |  |
| 41.8 | 11.9 | H-H[Aib]EGTFTSDK([AEEA-AEEA-γGlu-C16 diacid])SSYLEEQAAREFIAWLVRGRGGGGGEASELSTAALGRLSAELHELK([AEEA-AEEA-γGlu-C16 diacid])TLPRTETGSGSP-NH2 [Compound 0260] |  |
| 32.5 | 72.8 | H-H[Aib]EGTFTSDVSK([AEEA-AEEA-γGlu-C14 diacid])YLEEQAVREFIAK([AEEA-AEEA-γGlu-C14 diacid])LVRGRGGGEASELSTAALGRLSAELHELATLPRTETGSGSP-NH2 [Compound 0484] |  |
| 97.5 | 7.9 | H-H[Aib]EGTFTSDVSK([AEEA-AEEA-γGlu-C16 diacid])YLEEQAARK([AEEA-AEEA-γGlu-C16 diacid])FIEWLVRGAAEASELSTAALGRLSAELHELATLPRTETGSGSP-NH2 [Compound 0629] |  |
| 36.8 | 33.7 | H-H[Aib]EGTFTSDVSK([AEEA-AEEA-γGlu-C16 diacid])YLEEQAVREFIAK([AEEA-AEEA-γGlu-C16 diacid])LVRGRGGGEASELSTAALGRLSAELHELATLPRTETGSGSP-NH2 [Compound 0483] |  |
| 14.5 | 24.5 | H-H[Aib]EGTFTSDVSK([AEEA-X1])YLEEQAAREFIAWLVRGRGGGGGEASELSTAALGRLSAELHELATLPRTETGSGSP-NH2 [Compound 0564] |  |
| 59.4 | 14.7 | H-H[Aib]EGTFTSDVSK([γGlu-γGlu-γGlu-γGlu-C16 diacid])YLEEQAARK([γGlu-γGlu-γGlu-γGlu-C16 diacid])FIAWLVRGRGEASELSTAALGRLSAELHELATLPRTETGSGSP-NH2 [Compound 0634] |  |
| 148 | 18.8 | H-H[Aib]EGTFTSDVSK([γGlu-γGlu-γGlu-γGlu-C20 diacid])YLEEQAAREFIEWLVRGAAEASELSTAALGRLSAELHELATLPRTETGSGSP-NH2 [Compound 0632] |  |
| 32.7 | 4.8 | H-H[Aib]EGTFTSDVSSYLEEK([AEEA-AEEA-γGlu-C16 diacid])AAREFIAWLVRGRGGGGGASELSTAALGRLSK([AEEA-AEEA-γGlu-C16 diacid])ELHELATLPRTETGSGSP-NH2 [Compound 0295] |  |
| 18.5 | 3.8 | H-H[Aib]EGTFTSDVSSYLEEK([AEEA-AEEA-γGlu-C16 diacid])AAREFIAWLVRGRGGGGGEASELSTAALGRLSAELHELATLK([AEEA-AEEA-γGlu-C16 diacid])RTETGSGSP-NH2 [Compound 0397] |  |
| 32.8 | 4.8 | H-H[Aib]EGTFTSDVSSYLEEK([AEEA-AEEA-γGlu-C16 diacid])AAREFIAWLVRGRGGGGGEASELSTAALGRLSAELHELK([AEEA-AEEA-γGlu-C16 diacid])TLPRTETGSGSP-NH2 [Compound 0396] |  |
| 11.5 | 6 | H-H[Aib]EGTFTSDVSSYLEEK([AEEA-AEEA-γGlu-C16 diacid])AAREFIAWLVRGRGGGGGEASELSTAALGRLSAELHK([AEEA-AEEA-γGlu-C16 diacid])LATLPRTETGSGSP-NH2 [Compound 0299] |  |
| 16.8 | 7.1 | H-H[Aib]EGTFTSDVSSYLEEQAAREFIAWLVK([AEEA-AEEA-γGlu-C18 diacid])GRGGGGGEASELSTAALGRLSAELHELATLPRTETGSGSP-NH2 [Compound 0144] |  |
